Here are results for one molecule from ChEMBL document CHEMBL4616659, “Talarolactone A, an Isocoumarin Derivative Fused with Dihydrothiophene with Selective Antimigratory Activity from the Endolichenic Fungus Talaromyces sp” (J Nat Prod, 2020).

Data set [1] is described as follows: Toxicity in zebrafish AB embryo up to 100 ug/ml after 24 to 88 hrs by inverted microscope. Further details: species or system Danio rerio. To be noted: in vivo.
In a further data set the test system is MCF7. Description: Cytotoxicity against human MCF7 cells at 6.25 to 50 ug/ml incubated for 24 hrs by MTT assay. Type of data set: functional, cell-based.
For a further data set, the system named is MDA-MB-231. Description: Cytotoxicity against human MDA-MB-231 cells at 6.25 to 50 ug/ml incubated for 24 hrs by MTT assay. Type of data set: functional, cell-based. A general note: Tetrazolium assays rely on reduction of a dye to a coloured formazan, in cell work by metabolically active cells.
For data set [2], the system named is Staphylococcus aureus. Description: Antibacterial activity against Methicillin-resistant Staphylococcus aureus up to 100 ug/ml incubated for 20 hrs by microbroth dilution method. Type of data set: functional, organism-based.
Another data set deals with Acinetobacter baumannii. Description: Antibacterial activity against Acinetobacter baumannii ATCC 19004 up to 100 ug/ml incubated for 20 hrs by microbroth dilution method. It counts as functional, organism-based.
In data set [3] the test system is HepG2. As to the kind of experiment: Antimigratory activity against human HepG2 cells at 25 ug/ml measured up to 60 hrs by microscopic based wound healing assay. Type of data set: functional, cell-based.
Data set [4] relates to Staphylococcus aureus. Description: Antibacterial activity against Staphylococcus aureus ATCC 29213 up to 100 ug/ml incubated for 20 hrs by microbroth dilution method. It counts as functional, organism-based. Background: In broth dilution the organism is exposed to a series of concentrations in liquid medium.
The nature of data set [5]: Cytotoxicity against human THLE cells at 6.25 to 50 ug/ml incubated for 24 hrs by MTT assay. It counts as cell-based.
For the next data set, the system named is Enterobacter cloacae. As to the kind of experiment: Antibacterial activity against Enterobacter cloacae ATCC 13047 up to 100 ug/ml incubated for 20 hrs by microbroth dilution method. Type of data set: functional, organism-based.
The subject of data set [6] is HepG2. Description: Cytotoxicity against human HepG2 cells at 6.25 to 50 ug/ml incubated for 24 hrs by MTT assay. It counts as functional, cell-based.
The test system of a further data set is Escherichia coli. Description: Antibacterial activity against Escherichia coli ATCC 25922 up to 100 ug/ml incubated for 20 hrs by microbroth dilution method. It counts as functional, organism-based.
Data set [7] is described as follows: Cytotoxicity against human HBE cells at 6.25 to 50 ug/ml incubated for 24 hrs by MTT assay. Type of data set: cell-based.
Data set [8] relates to Klebsiella pneumoniae. Description: Antibacterial activity against Klebsiella pneumoniae ATCC 43816 up to 100 ug/ml incubated for 20 hrs by microbroth dilution method. It counts as functional, organism-based.
The next data set has as its system A549. As to the kind of experiment: Cytotoxicity against human A549 cells at 6.25 to 50 ug/ml incubated for 24 hrs by MTT assay. It counts as functional, cell-based.
In a further data set the test system is Salmonella typhimurium. As to the kind of experiment: Antibacterial activity against Salmonella typhimurium ATCC 14028 up to 100 ug/ml incubated for 20 hrs by microbroth dilution method. It counts as functional, organism-based. The note with it: Salmonella enterica subsp. enterica serovar Typhimurium.
Data set [9] relates to Klebsiella pneumoniae. As to the kind of experiment: Antibacterial activity against Klebsiella pneumoniae harboring NDM1 mutant up to 100 ug/ml incubated for 20 hrs by microbroth dilution method. Type of data set: functional, organism-based.

The structures appear in SMILES notation. Calls of active or inactive are those of the source. The rule behind the calls is not given here.

As for `COc1cc(C(=O)O)c2c3c1C(=O)O[C@@H](C)[C@@H]3CS2`, the Activity result in data set [1], in data set [5] and in [7] was “Non-Toxic” each time. Moreover, the outcome in the data set on MCF7, in the data set with MDA-MB-231, in the data set with Staphylococcus aureus [2], in the data set with Acinetobacter baumannii, in the data set on Staphylococcus aureus [4] and in the data set on Enterobacter cloacae was inactive. Moreover, the outcome in the data set with HepG2 [6], in the data set with Escherichia coli, in the data set on Klebsiella pneumoniae [8], in the data set with A549, in the data set on Salmonella typhimurium and with Klebsiella pneumoniae [9] was inactive. Besides, in the data set on HepG2 [3], the result was Active.
